Assays:
[1] = test system: genomic locus of beta-actin; experiment: Insertion of puromycin-P2A-OFP into beta-actin locus in human primary T cells, OFP-positive cells by flow cytometry; assay type: cell-based; settings: 30 μM in culture medium after electroporation, 48 hours
Protocol: Human peripheral blood mononuclear cells (PBMCs) were isolated from peripheral blood using Ficoll-Paque PLUS density gradient according to manufacturer's instructions. The human primary T cells were then isolated using DYNABEADS™ UNTOUCHED™ Human T Cells Kit and expanded using OPTMIZER™ CTS™ T-Cell Expansion SFM supplemented with 200 IU/mL of IL-2. The activation and expansion of human T cells were carried out using DYNABEADS™ Human T-Expander CD3/CD28 kit. On day 3 of activation, T cells were harvested for transfection.
For transfection of primary T cells, 1×10^5 cells were used per NEON® electroporation with voltage set at 1700V, pulse width set at 20 ms, and the number of pulses set at 1, respectively. To evaluate the effects of chemical modification on HDR efficiency, phosphorothioate or amine-modified nucleotides were added at specific positions of the oligonucleotides during chemical synthesis. The resulting modified oligonucleotides were then used to amplify the donor DNA. […] Cells were analyzed at 48 hours post transfection.
Linear ds- or ss-DNA donor could be degraded in vivo by exonucleases. […] At 48 hours post transfection, the percentages of OFP-positive cells were determined by flow cytometric analysis. […]
The disruption of NHEJ repair pathway is known to improve HDR efficiency. […] At 48 hours post transfection, we analyzed the cells by flow cytometry.

[2] = test system: β-actin; experiment: One-step knock-in with two Cas9/gRNA complexes in primary T cells, knock-in efficiency; assay type: cell-based, human; settings: in media for two days after electroporation
Protocol: (§1) Human primary T cells were isolated and activated as in Example 10. On the third day after activation, cells were transfected with 1 μg TRUECUT™ Cas9 Protein v2 with 250 ng of β-actin gRNA, 1 μg TRUECUT™ Cas9 Protein v2 with 250 ng of a guide RNA targeting the T cell receptor (TRAC gRNA), and 1 μg OFP-Puro in electroporation buffer. Electroporation was performed using the NEON® Transfection System, program 24. After electroporation, the cells were cultured in media containing NHEJ inhibitor (Ku0060648) for two days, then analyzed via FACS analysis for SSC-A and OFP.

[3] = test system: T cell receptor (TRAC gRNA); experiment: One-step knock-in with two Cas9/gRNA complexes in primary T cells, knock-out efficiency; assay type: cell-based, human; settings: in media for two days after electroporation
Protocol: as §1

[4] = test system: β-actin in NK-92; experiment: One-step knock-in of OFP with NHEJ inhibitor in NK-92 cells; assay type: cell-based; settings: NK-92, in media for two days after transfection
Protocol: (§2) Various cell types (NK-92, THP-1, Jurkat) were transfected with 1 μg TRUECUT™ Cas9 Protein v2 and 250 ng of β-actin gRNA, and 0.25 μg, 0.5 μg, or 1 μg OFP-Puro in electroporation buffer. Electroporation was performed using the NEON® Transfection System. After electroporation, the cells were cultured in media containing NHEJ inhibitor (Ku0060648) for two days, then analyzed via FACS analysis for SSC-A and OFP.

[5] = test system: β-actin in THP-1; experiment: One-step knock-in of OFP with NHEJ inhibitor in THP-1 cells; assay type: cell-based; settings: THP-1, in media for two days after transfection
Protocol: as §2

[6] = test system: β-actin in Jurkat; experiment: One-step knock-in of OFP with NHEJ inhibitor in Jurkat cells; assay type: cell-based; settings: in media for two days after transfection
Protocol: as §2

Structure (SMILES)	increase of the percentage of OFP-positive cells ([1]; amine-modified donor DNA)	increase of the percentage of OFP-positive cells ([1]; unmodified donor DNA)	knock-in efficiency (Q3) [2]	knock-out efficiency (Q3 and Q4) [3]	knock-in efficiency [4]	knock-in efficiency [5]	knock-in efficiency [6]
O=c1cc(N2CCOCC2)oc2c1ccc1ccccc12 [Nu7026, 2-(4-Morpholinyl)-4H-naphthol[1,2-b]pyran-4-one]	~2 fold	approximately 5 fold					
CCN1CCN(CC(=O)Nc2ccc(-c3cccc4c(=O)cc(N5CCOCC5)oc34)c3sc4ccccc4c23)CC1 [Ku-0060648, 4-Ethyl-N-[4-[2-(4-morpholinyl)-4-oxo-4H-1-benzopyran-8-yl]-1-dibenzothienyl]-1-piperazineacetamide]			increased knock-in efficiency	without affecting knock-out efficiency	increased knock-in efficiency	increased knock-in efficiency	increased knock-in efficiency
